In this assay the target is Nucleotide-binding oligomerization domain-containing protein 2 (Homo sapiens, UniProt Q9HC29). Kind of assay: Inhibition of NOD2 in human monocytes assessed as reduction in MDP-induced TNFalpha production preincubated for 30 mins followed by MDP-stimulation and measured after 6 hrs by immunoassay.

The values below come from BindingDB's records for doi:10.1021/acs.jmedchem.9b00575 (Glaxosmithkline, 2019).

The structures appear in SMILES notation.

Chain of Nucleotide-binding oligomerization domain-containing protein 2 (Q9HC29 whole entry, the tested form may be a part): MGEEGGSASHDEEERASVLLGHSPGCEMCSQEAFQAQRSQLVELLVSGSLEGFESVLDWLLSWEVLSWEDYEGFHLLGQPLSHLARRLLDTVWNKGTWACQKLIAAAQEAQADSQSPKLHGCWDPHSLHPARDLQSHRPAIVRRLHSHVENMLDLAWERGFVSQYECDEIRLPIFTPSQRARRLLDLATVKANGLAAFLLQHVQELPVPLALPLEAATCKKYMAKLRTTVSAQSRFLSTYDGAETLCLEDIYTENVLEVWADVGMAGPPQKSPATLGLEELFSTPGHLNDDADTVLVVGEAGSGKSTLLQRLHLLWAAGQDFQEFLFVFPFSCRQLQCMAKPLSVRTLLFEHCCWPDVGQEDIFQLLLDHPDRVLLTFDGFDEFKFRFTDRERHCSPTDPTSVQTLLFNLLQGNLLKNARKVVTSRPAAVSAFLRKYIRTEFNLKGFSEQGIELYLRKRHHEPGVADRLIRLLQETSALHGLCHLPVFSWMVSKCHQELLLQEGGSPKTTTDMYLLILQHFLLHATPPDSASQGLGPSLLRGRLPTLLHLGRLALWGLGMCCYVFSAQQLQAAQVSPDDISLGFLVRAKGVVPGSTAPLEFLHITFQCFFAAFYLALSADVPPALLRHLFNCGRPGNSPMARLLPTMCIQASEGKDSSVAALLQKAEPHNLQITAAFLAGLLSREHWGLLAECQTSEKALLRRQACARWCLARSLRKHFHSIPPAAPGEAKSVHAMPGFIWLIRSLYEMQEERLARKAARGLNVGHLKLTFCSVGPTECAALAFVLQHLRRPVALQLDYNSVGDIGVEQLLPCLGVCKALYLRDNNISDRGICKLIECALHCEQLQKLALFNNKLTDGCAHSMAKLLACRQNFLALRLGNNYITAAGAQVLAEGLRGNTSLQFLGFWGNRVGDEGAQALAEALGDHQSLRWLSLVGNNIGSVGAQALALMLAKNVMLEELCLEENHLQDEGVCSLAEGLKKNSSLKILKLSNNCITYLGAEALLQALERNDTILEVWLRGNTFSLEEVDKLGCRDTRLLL

As usually defined, the IC50 is the concentration needed to halve the response being measured. Take `CC(C)(C)S(=O)(=O)c1cc2c(Nc3ccc4scnc4c3)ncnc2cc1OCCO`: the IC50 came to 13 nM.
